The record followed here is patent publication US11801256B2, “Antidepressant-psilocybin co-treatment to assist psychotherapy” (Universitätsspital Basel, priority 2021, dated 2023).

A short description of data set [1]: Plasma drug concentrations and pharmacokinetic analyses. In kind it is in vivo, human. The following applies: for elimination half-life / mean time to peak concentrations: psilocin glucuronide after 25 mg psilocybin. As for the experimental part: The blood samples were immediately centrifuged, and the plasma was subsequently stored at −80° C. until analysis.
This allows to determine the concentrations of unconjugated psilocin and of psilocin glucuronide which corresponds to the difference between samples that were incubated with and without glucuronidase.

In data set [2] the test system is healthy subjects. The experiment in a line: QTc time. The data set is classed as in vivo, human. Conditions: 2.5 hours after psilocybin administration compared with 1 hour before. The text has this: Exclusion criteria: Chronic or acute medical condition, including a history of seizures. Current or previous major psychiatric disorder (e.g. psychotic disorders, mania/hypomania, anxiety disorders, and substance abuse). Psychotic disorder in first-degree relatives, not including psychotic disorders secondary to an apparent medical reason, e.g. brain injury, dementia, or lesions of the brain. Illicit substance use (with the exception of cannabis) more than 10 times or any time within the previous two months. History of an angle closure glaucoma. Pregnant or nursing women. Participation in another clinical trial (currently or within the last 30 days). […] A corrected QT time (QTc), calculated by Bazett's formula, of over 450 milliseconds in males and over 470 milliseconds in females. Tobacco smoking (>10 cigarettes/day). Consumption of alcoholic drinks (>10 drinks/week). Bodyweight <45 kg.

For data set [3], the system named is healthy subjects. As to the kind of experiment: Adverse effects (list of complaints) and adverse events. The data set is classed as in vivo, human. As for the experimental part:
(§1) Treatment order was random and counterbalanced.
Adverse effects (list of complaints): The list of complaints (LC) consists of 66 items offering a global score measuring physical and general discomfort (Zerssen, 1976). This scale yields a total adverse effects score and reliably measures physical and general discomfort. The LC list was administered 7 hours after administration of the drug with reference to complaints throughout the entire session.

Data set [4] concerns healthy subjects. As to the kind of experiment: Subjective effects, visual analog scales (VAS), clinical study. The data set is classed as in vivo, human. The following applies: 25 mg psilocybin. As for the experimental part:
as §1
Study procedures: Subjects took part in a 2-hour screening session, two 9.5-hour test sessions where the psilocybin was administered and a 1-hour end-of-study visit. The subjects were informed about the study both verbally and by the approved written consent form regarding the altered state of consciousness, the study procedures and associated risks. The investigator and the subject both personally signed and dated the consent form as confirmation of consent. Subjects were screened using a semi-structured clinical interview for DSM-IV (Diagnostic and Statistical Manual Version 4) (Wittchen et al., 1997) to exclude those with a personal or family (first-degree relative) axis I major psychiatric disorder (acute or past) or a history of illicit drug dependence. Axis I major psychiatric disorders included also addiction disorders. The sessions were conducted in a calm standard hospital room. Only one research subject and one investigator were present during the test sessions. The test sessions began at 9 AM. The subjects then underwent baseline measurements. […] Psilocybin was administered at 11:00 AM. The outcome measures were repeatedly assessed for 7 hours. The subjects were under constant supervision by an investigator until 6 PM. Thus, the subjects were never alone during the 7 hours after drug administration. The subjects were sent home at 6:30 PM.
Subjective Effects Questionnaire (Visual Analog Scales, VAS): VAS was repeatedly used to assess subjective alterations in consciousness over time. Single scales were presented as 100 mm horizontal lines marked with “not at all” on the left and “extremely” on the right. The following VAS items were used: “any drug effect”, “good drug effect”, “bad drug effect”, “drug liking”, “drug high”, “stimulated”, “fear”, “happy”, “content”, “trust”, “talkative”, “perception of time”, “open”, “concentration”, “speed of thinking”, “feeling close to others”, “wanting to be hugged”, “wanting to hug someone”, “desire to be alone”, “desire to be with others”, and “ego dissolution”. The VASs were presented as 100-mm horizontal lines (0-100%), marked from “not at all” on the left to “extremely” on the right. Some VASs were bidirectional (±50%). Marked from “not at all” on the left (−50), to “normal” in the middle (0), to “extremely” on the right (+50).
The criterion for significance was p<0.05.

Data set [5] deals with healthy subjects. The experiment in a line: Autonomic measures (blood pressure, heart rate, body temperature, pupil size). Conditions: 25 mg psilocybin, healthy subjects. On the procedure:
Study design: A double-blind, cross-over design was used with two conditions. […] 2) Pretreatment with placebo for 14 days with the last administration on the study day and administration of 25 mg psilocybin 2 hours later. Treatment order was random and counterbalanced. Between the 14 days pretreatment and the study day, there were at least 2 days washout until the next pretreatment phase began.
Autonomic measures: Blood pressure, heart rate, and body temperature were recorded at baseline and repeatedly throughout the session. Blood pressure (systolic and diastolic) and heart rate were measured with an automatic oscillometric device. Body temperature was measured with an ear thermometer as previously described in detail (Hysek et al., 2010). Measures were taken before and at 0, 0.25, 0.5, 0.75, 1, 1.5, 2, 2.5, 3, 4, 5, 6 and 7 hours after psilocybin administration.
Data analysis: Peak (Emax and/or Emin) or peak change from baseline (ΔEmax) values were determined for repeated measures. The values were then analyzed using paired T-tests using Statistica 12 software (StatSoft, Tulsa, OK, USA). The criterion for significance was p<0.05.

The mark [6] stands for this setting: after escitalopram pretreatment.
[7] abbreviates: after psilocybin, after escitalopram pretreatment.
Setting [8] is: after psilocybin, after placebo pretreatment.

One may read the half-life as the time needed for the level to fall by half in the phase considered. On to `CN(C)CCc1c[nH]c2cccc(O)c12` [psilocin], for which the metabolism of psilocin result in data set [1] (after 25 mg psilocybin) was “metabolized to approximately similar extents to inactive 4-HIAA and psilocin-glucuronide”. The half-life in data set [1] (human, plasma, oral, non-glucuronidated (nonconjugated) psilocin after 25 mg psilocybin, read-out: elimination half-life (converted)) is 2 h. In data set [1] (non-glucuronidated (nonconjugated) psilocin after 25 mg psilocybin), the “mean time to maximal plasma concentration” value stood at 2 h. Further, in data set [1] (samples analyzed with and without glucuronidase), the “conjugation (glucuronidation) in plasma” value was “A large proportion of psilocin underwent glucuronidation”.

Consider `O=C(O)Cc1c[nH]c2cccc(O)c12` [4-HIAA, 4-hydroxyindole-3-acetic acid], for which the “increase in metabolite concentrations over time” value in data set [1] (4-HIAA compared to the glucuronide) is listed as “faster”.

As to `CN(C)CCc1c[nH]c2cccc(O[C@@H]3O[C@H](C(=O)O)[C@@H](O)[C@H](O)[C@H]3O)c12` [psilocin glucuronide], the elimination half-life in data set [1] (setting [6]) turned out to be 5.2 h; in data set [1] (after escitalopram pretreatment, listed as Glucuronidated psilocin), 4.5 h; in data set [1] (after placebo pretreatment), 4.5 h; in data set [1] (after placebo pretreatment, listed as Glucuronidated psilocin), 4.1 h. Besides, the “mean time to peak concentrations” value in data set [1] (setting [6]) was 3.74 h; in data set [1] (after placebo pretreatment) it was 3.8 h; in data set [1] (pretreatments not separated) it was 3.2 to 3.4 h.

In the case of `CN(C)CCc1c[nH]c2cccc(OP(=O)(O)O)c12` [Psilocybin, psilocybin], the QTc times result in data set [2] was “did not increase”. In data set [3] (after escitalopram and placebo pretreatment), the “type and amount of adverse events following psilocybin administration” value is listed as “comparable”. Also, in data set [3] (setting [7]), the “adverse aftereffects: abdominal bloating” value is given as “one”, the “adverse aftereffects: flash backs” value is given as “one”, the “adverse aftereffects: headaches” value is “six” and the “adverse aftereffects: lack of energy” value is “one”. The “adverse aftereffects: nausea” value in data set [3] (setting [7]) is recorded as “one”. Also, in data set [3] (setting [8]), the “adverse aftereffects: flash backs” value is “one”, the “adverse aftereffects: headaches” value was “six”, the “adverse aftereffects: nausea” value is “one” and the “adverse aftereffects: vasovagal syncope” value is recorded as “one”. Moreover, the bad drug effects result in data set [4] (healthy subjects) is on record as “only moderate”. Further, the anxiety entry in data set [4] (healthy subjects (FIG. 6B)) was “only moderate”. Further, in data set [5], the body temperature result is reported as “moderately increased”, the diastolic blood pressure entry was “moderately increased”, the heart rate result is “changed only minimally” and the pupil size result is “moderately increased”. Further, in data set [5], the rate-pressure product entry was “moderately increased” and the systolic blood pressure result is listed as “moderately increased”.
